Values joined by “and” are separate entries in the source; they are usually repeats but may differ in a detail not shown here. Equal entries are not always repeated.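 Exposure lasted 48 hours, with cells grown in 96-well plates and compounds tested at five concentrations. GI50 marks 50% less growth. At the TGI there is no net growth.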 Where a SMILES comes first, the peptide text is derived from it. [ ]: non-standard residue; d: D form. The star is where a group is joined. ξ: configuration not given here. ξF = NC(Cc1ccccc1)C(=O)O; Cbz = O=C(OCc1ccccc1)*

Drawing on PubChem BioAssay (NCI), this text covers TGI and GI50 for ten compounds.

Test systems include LOX IMVI melanoma; HCT-15 colon; M14 melanoma; OVCAR-8 ovarian; PC-3 prostate; HOP-62 NSCLC; SW-620 colon; SR leukemia; MOLT-4 leukemia; ACHN renal; SF-539 CNS; NCI-H522 lung; MCF7 breast; T-47D breast; HS 578T breast.
Test in all cases: growth of human tumour cells (NCI), 48 h

As for `COC(=O)c1cc(S(=O)(=O)NC2=NCC(C)NN2)c(S)cc1Cl` (stereo unspecified), the TGI in the assay with LOX IMVI melanoma, in the assay with HCT-15 colon, with M14 melanoma, in the assay with OVCAR-8 ovarian, with PC-3 prostate and with HOP-62 NSCLC was above 100 µM in each case. Further, the TGI in the assay with SW-620 colon was above 100 µM; with SR leukemia it was above 100 µM; in the assay on MOLT-4 leukemia, above 100 µM; in the assay on ACHN renal it was above 100 µM; in the assay on SF-539 CNS, above 100 µM; in the assay on NCI-H522 lung it was 47.5 µM. Besides, the TGI in the assay on MCF7 breast is above 100 µM.

On to `O=[N+]([O-])c1cccc2nc3ccccc3c(NCCCCCNc3c4ccccc4nc4cccc([N+](=O)[O-])c34)c12`, for which the GI50 in the assay on LOX IMVI melanoma is 0.0746 µM; in the assay on T-47D breast, 0.121 µM. For the same compound, the TGI is 0.0573 µM and 0.119 µM in the assay with HCT-15 colon; 0.198 µM and 0.024 µM in the assay with M14 melanoma; 0.348 µM in the assay with OVCAR-8 ovarian; 0.598 µM in the assay with PC-3 prostate; 0.837 µM and 2.24 µM in the assay with T-47D breast; 1.62 µM with SW-620 colon. Also, the TGI was 0.0202 µM with SR leukemia; 0.244 µM with MOLT-4 leukemia; 0.115 µM and 0.0165 µM in the assay with ACHN renal; 0.135 µM and 0.0297 µM in the assay with SF-539 CNS; 0.388 µM in the assay with NCI-H522 lung; 0.512 µM in the assay on HS 578T breast.

Consider `O=c1cc(Nc2cccc(O)c2)[nH]c(=O)[nH]1`, for which the TGI in the assay on LOX IMVI melanoma, with HCT-15 colon, with M14 melanoma, in the assay on OVCAR-8 ovarian, in the assay with PC-3 prostate and with HOP-62 NSCLC was above 100 µM each time. Further, the TGI in the assay with T-47D breast, in the assay on SW-620 colon, in the assay on SR leukemia, in the assay with MOLT-4 leukemia, in the assay with ACHN renal and with SF-539 CNS was above 100 µM each time. The TGI in the assay with NCI-H522 lung and in the assay on HS 578T breast was above 100 µM in each case.

Take `Cn1c2ccccc2c(=O)c2c(O)cc3c(c21)C1OCC(C)(O)C1O3` (stereo unspecified): the TGI in the assay on HCT-15 colon, with M14 melanoma, in the assay with OVCAR-8 ovarian, in the assay on PC-3 prostate, in the assay on HOP-62 NSCLC and in the assay on T-47D breast was above 100 µM throughout. Also, the TGI with SW-620 colon is above 100 µM; in the assay with SR leukemia it was above 100 µM; in the assay with MOLT-4 leukemia, above 100 µM; with ACHN renal, above 100 µM; with SF-539 CNS, 56.2 µM; in the assay on MCF7 breast, above 100 µM. For the same compound, in the assay on HS 578T breast, the TGI came out at 37.5 µM.

Consider `CCOC(=O)CNC(=O)C(Cc1ccccc1)NC(=O)OCc1ccccc1` (stereo unspecified) (Cbz-[ξF]-Gly-OEt), for which the TGI in the assay with LOX IMVI melanoma, in the assay on HCT-15 colon, with M14 melanoma, with OVCAR-8 ovarian, with PC-3 prostate and with HOP-62 NSCLC was above 100 µM in each case. For the same compound, the TGI in the assay with T-47D breast, in the assay on SW-620 colon, in the assay on SR leukemia, in the assay with MOLT-4 leukemia, in the assay on ACHN renal and with MCF7 breast was above 100 µM throughout. Further, the TGI in the assay with HS 578T breast is above 100 µM.

`C=CCON(C(=O)OC(C)(C)C)C(C)(C)C`: the TGI in the assay on LOX IMVI melanoma, in the assay with HCT-15 colon, in the assay with M14 melanoma, with OVCAR-8 ovarian, in the assay with PC-3 prostate and with HOP-62 NSCLC was above 100 µM each time. The TGI in the assay on T-47D breast, with SW-620 colon, in the assay on SR leukemia, in the assay with MOLT-4 leukemia, in the assay with ACHN renal and in the assay on NCI-H522 lung was above 100 µM each time. In the assay on HS 578T breast, this compound came in with a TGI above 100 µM.

On to `Cc1cc(C)c(-c2no/c(=N\S(=O)(=O)c3ccc(Cl)cc3)o2)c(C)c1`, for which the TGI with HCT-15 colon, with M14 melanoma, with OVCAR-8 ovarian, with PC-3 prostate, in the assay on HOP-62 NSCLC and with T-47D breast was above 100 µM throughout. Moreover, the TGI is above 100 µM in the assay with SW-620 colon; 55 µM in the assay on SR leukemia; above 100 µM in the assay with MOLT-4 leukemia; above 100 µM in the assay with ACHN renal; above 100 µM with SF-539 CNS; 71.2 µM in the assay with NCI-H522 lung. Further, the TGI is 56.1 µM with MCF7 breast and above 100 µM in the assay with HS 578T breast.

As to `O=C(CSCC(=O)N/N=C/c1cccc(O)c1)N/N=C/c1cccc(O)c1`, the TGI with HCT-15 colon, in the assay with M14 melanoma, with OVCAR-8 ovarian, in the assay on PC-3 prostate, with HOP-62 NSCLC and with T-47D breast was above 100 µM in each case. Also, the TGI in the assay with SW-620 colon, in the assay on SR leukemia, with MOLT-4 leukemia, in the assay on ACHN renal, in the assay on SF-539 CNS and in the assay on NCI-H522 lung was above 100 µM in each case. For the same compound, the TGI with MCF7 breast and with HS 578T breast was above 100 µM each time.

Consider `COC(=O)[C@@]12OC[C@]34C([C@@H](O)C1O)[C@@]1(C)CC(=O)C(OC(=O)CC(C)C(F)(F)F)=C(C)C1C[C@H]3OC(=O)[C@H](O)[C@H]42` (stereo partly specified), for which the TGI was above 62.5 µM in the assay with HCT-15 colon; 9.76 µM with M14 melanoma; above 62.5 µM in the assay on OVCAR-8 ovarian; above 62.5 µM in the assay with HOP-62 NSCLC; above 62.5 µM in the assay on SW-620 colon; 19.9 µM with SR leukemia. For the same compound, the TGI with MOLT-4 leukemia is 19.4 µM; in the assay on ACHN renal, above 62.5 µM; with SF-539 CNS, 10.9 µM; in the assay with NCI-H522 lung, 24.5 µM.

In the case of `CCOC(=O)c1cn(CC)c(=O)n2c1nc1ccccc12`, the TGI was 84.1 µM with LOX IMVI melanoma; above 100 µM with HCT-15 colon; above 100 µM in the assay on M14 melanoma; above 100 µM with OVCAR-8 ovarian; above 100 µM in the assay on PC-3 prostate; above 100 µM in the assay on HOP-62 NSCLC. Moreover, the TGI in the assay with T-47D breast, in the assay on SW-620 colon, in the assay on SR leukemia, with MOLT-4 leukemia, with ACHN renal and in the assay with SF-539 CNS was above 100 µM each time. The TGI with MCF7 breast is above 100 µM.
